The target of one experiment is T1, JAK1 (Homo sapiens, UniProt P23458).
T1 construct: GST; purchased Life Technologies
Briefly: Biochemical JAK kinase assay (LanthaScreen), JAK1. The conditions noted are these: converted from pIC50 by Cheng-Prusoff; ATP at Km 25 μM; read-out: JAK 1 (pKi) (converted). As to the method:
Assay 1: Biochemical JAK and Tyk2 Kinase Assays A panel of four LanthaScreen JAK biochemical assays (JAK1, 2, 3 and Tyk2) were carried in a common kinase reaction buffer (50 mM HEPES, pH 7.5, 0.01% Brij-35, 10 mM MgCl2, and 1 mM EGTA). Recombinant GST-tagged JAK enzymes and a GFP-tagged STAT1 peptide substrate were obtained from Life Technologies. Serially or discretely diluted compounds were pre-incubated with each of the four JAK enzymes and the substrate in white 384-well microplates (Corning) at ambient temperature for 1 h. ATP was subsequently added to initiate the kinase reactions in 10 μL total volume, with 1% DMSO. […] The plates were allowed to incubate at ambient temperature for 1 h before being read on the EnVision reader (Perkin Elmer). Emission ratio signals (520 nm/495 nm) were recorded and utilized to calculate the percent inhibition values based on DMSO and background controls. For dose-response analysis, percent inhibition data were plotted vs. compound concentrations, and IC50 values were determined from a 4-parameter robust fit model with the Prism software (GraphPad Software). Results were expressed as pIC50 (negative logarithm of IC50) and subsequently converted to pKi (negative logarithm of dissociation constant, Ki) using the Cheng-Prusoff equation.

Experiment [1] deals with IL-2 stimulated STAT5 phosphorylation in Tall-1 human T cell line. Nature of the experiment: Assay 11: inhibition of IL-2 stimulated pSTAT5 in Tall-1 T cells. The class given is cell-based. The conditions noted are these: read-out: pIC50 for inhibition of IL-2 induced STAT5 phosphorylation (converted). As to the method:
Assay 11: Inhibition of IL-2 Stimulated pSTAT5 in Tall-1 T Cells
The potency of test compounds for inhibition of interleukin-2 (IL-2) stimulated STAT5 phosphorylation was measured in the Tall-1 human T cell line (DSMZ) using AlphaLisa. Because IL-2 signals through JAK1/3, this assay provides a measure of JAK1/3 cellular potency.
Phosphorylated STAT5 was measured via the AlphaLISA SureFire Ultra pSTAT5 (Tyr694/699) kit (PerkinElmer).
Human T cells from the Tall-1 cell line were cultured in a 37° C., 5% CO2 humidified incubator in RPMI (Life Technologies) supplemented with 15% Heat Inactivated Fetal Bovine Serum (FBS, Life Technologies), 2 mM Glutamax (Life Technologies), 25 mM HEPES (Life Technologies) and 1× Pen/Strep (Life Technologies). […] Phosphorylated STAT5 was measured via the pSTAT5 AlphaLisa kit (PerkinElmer). […] Luminescence was measured with excitation at 689 nm and emission at […] using an EnVision plate reader (PerkinElmer) under green filtered <100 lux light.
To determine the inhibitory potency of test compounds in response to IL-2, the average emission intensity of beads bound to pSTAT5 was measured in a human T cell line. IC50 values were determined from analysis of the inhibition curves of signal intensity versus compound concentration. Data are expressed as pIC50 (negative decadic logarithm IC50) values (mean±standard deviation).

The test system of experiment [2] is IL-22 suppressed Filaggrin expression. Nature of the experiment: Assay 15: recovery of IL-22 suppressed Filaggrin in normal human epidermal keratinocytes. The experiment is classed as cell-based. The conditions noted are these: IL-22 50 ng/mL, 4 days. The protocol: Assay 15: Recovery of IL-22 Suppressed Filaggrin in Normal Human Epidermal Keratinocytes
IL-22 is known to inhibit the expression of terminal differentiation genes, such as Filaggrin. The recovery level of test compound for interleukin-22 (IL-22) suppressed Filaggrin expression was measured in the normal human epidermal keratinocytes (ATCC) using real-time PCR.
Primary epidermal keratinocytes were cultured in a 37° C., 5% CO2 humidified incubator in dermal cell basal medium (ATCC) supplemented with keratinocyte growth kit (ATCC) and 1× Pen/Strep (Life Technologies). Cells were seeded at 5,000 cells/well in BioCoat 96-well plates (Corning) with 100 μl and incubated at 37° C., 5% CO2 for 3 to 4 days till 100% confluency. Then, the medium was removed and replaced with 150 μL of medium containing does-response of test compounds. Compounds were serially diluted in DMSO and then diluted another 1000-fold in media to bring the final DMSO concentration to 0.1%. On day 1 of the assay, cells were incubated with test compounds at 37° C. for 1 h, and followed by the addition of followed by the addition of IL-22 (R&D Systems; final concentration 50 ng/mL) in pre-warmed media (50 μL) for 4 days. […] Fluorescence signals were captured after each cycle. Comparative CT method was used to quantify gene expression with cells without IL-22 and test compounds as baseline control.

T1 sequence (P23458 whole entry): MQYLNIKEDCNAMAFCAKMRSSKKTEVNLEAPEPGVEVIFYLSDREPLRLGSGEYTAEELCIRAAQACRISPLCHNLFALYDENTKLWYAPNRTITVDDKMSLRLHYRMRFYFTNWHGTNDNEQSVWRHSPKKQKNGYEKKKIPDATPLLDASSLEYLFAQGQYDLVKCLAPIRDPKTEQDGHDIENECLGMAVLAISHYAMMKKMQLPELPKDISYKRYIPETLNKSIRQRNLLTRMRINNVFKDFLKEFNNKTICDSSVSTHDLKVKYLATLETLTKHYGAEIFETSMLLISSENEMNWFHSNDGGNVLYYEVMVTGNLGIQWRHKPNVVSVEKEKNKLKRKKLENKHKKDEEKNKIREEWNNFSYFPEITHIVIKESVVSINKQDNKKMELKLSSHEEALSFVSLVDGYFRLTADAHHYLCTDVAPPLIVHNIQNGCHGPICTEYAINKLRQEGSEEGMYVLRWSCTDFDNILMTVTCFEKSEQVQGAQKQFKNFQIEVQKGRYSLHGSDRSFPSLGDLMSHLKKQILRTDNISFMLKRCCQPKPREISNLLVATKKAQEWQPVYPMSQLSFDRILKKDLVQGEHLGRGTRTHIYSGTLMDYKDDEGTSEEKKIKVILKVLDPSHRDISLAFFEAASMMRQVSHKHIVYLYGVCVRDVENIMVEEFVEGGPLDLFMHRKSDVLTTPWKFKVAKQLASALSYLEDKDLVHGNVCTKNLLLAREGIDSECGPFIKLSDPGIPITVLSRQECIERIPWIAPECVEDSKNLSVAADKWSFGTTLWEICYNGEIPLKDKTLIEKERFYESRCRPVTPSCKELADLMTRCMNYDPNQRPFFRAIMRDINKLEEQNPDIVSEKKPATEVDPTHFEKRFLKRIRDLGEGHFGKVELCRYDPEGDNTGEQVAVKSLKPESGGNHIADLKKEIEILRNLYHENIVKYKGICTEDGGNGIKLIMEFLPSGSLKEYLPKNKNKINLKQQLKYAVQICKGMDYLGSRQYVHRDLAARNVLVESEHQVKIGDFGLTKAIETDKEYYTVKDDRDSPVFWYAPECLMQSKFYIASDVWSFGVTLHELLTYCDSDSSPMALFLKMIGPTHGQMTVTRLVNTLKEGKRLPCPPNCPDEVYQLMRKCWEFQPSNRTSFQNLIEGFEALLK

On to `CCS(=O)(=O)N1[C@@H]2CCC[C@H]1C[C@H](N(C)c1nc(CO)c(F)c(Nc3cc(C)[nH]n3)n1)C2` [Compound (I), (2-(((1R,3s,5S)-9-(ethylsulfonyl)-9-azabicyclo[3.3.1]nonan-3-yl)(methyl)amino)-5-fluoro-6-((5-methyl-1H-pyrazol-3-yl)amino)pyrimidin-4-yl)methanol], for which, on JAK1, the Ki is 0.0631 nM. Besides, in experiment [1], the IC50 is 3.98 nM. Moreover, in experiment [2], the “concentration at which recovery of IL-22 suppressed Filaggrin expression was observed” value was less than 1 µM.

Values taken from patent US10774080B2, “Pyrimidine compound as JAK kinase inhibitor” (THERAVANCE BIOPHARMA R&D IP, LLC, priority 2017, dated 2020).
